Test results published in the Deep4Chem optical property database.

Experiment: solvent given as SMILES

Cc1ccc(/C=N/c2cc(C(C)C)c(O)cc2C)cc1
emission maximum (in C1CCCCC1): 400 nm | emission maximum (in C1CCOC1): 410 nm | emission maximum (in C1COCCO1): 408 nm | emission maximum (in CC#N): 415 nm | emission maximum (in CC(C)(C)O): 412 nm | emission maximum (in CC(C)O): 416 nm | emission maximum (in CCCCCC): 402 nm | emission maximum (in CCCCO): 417 nm | emission maximum (in CCO): 417 nm | emission maximum (in CCOC(C)=O): 409 nm | emission maximum (in CN(C)C=O): 414 nm | emission maximum (in CO): 422 nm | emission maximum (in CS(C)=O): 417 nm | emission maximum (in ClC(Cl)Cl): 415 nm | emission maximum (in ClCCl): 415 nm | emission maximum (in O): 441 nm | emission maximum (in OCCO): 425 nm

Cc1cc(C)c(B(c2cc(-c3ccc(N(C)C)cc3)sc2-c2sc(-c3ccc(N(C)C)cc3)cc2P(=O)(c2ccccc2)c2ccccc2)c2c(C)cc(C)cc2C)c(C)c1
emission maximum (in CO): 645 nm

CCOC(=O)c1c2c3c(ccc(OC)c3c3cc4ccccc4cc13)N(C)C2=O
emission maximum (in CC#N): 413 nm

c1ccc2c(c1)ccc1oc3ccc4cc5oc6ccc7ccc8oc9ccc%10ccccc%10c9c8c7c6c5cc4c3c12
emission maximum (in CC#N): 432 nm

CCC1=C(C)C2=C(c3cc(C4=C5C(C)=C(CC)C(C)=[N+]5[B-](F)(F)n5c(C)c(CC)c(C)c54)cc(C4=C5C(C)=C(CC)C(C)=[N+]5[B-](F)(F)n5c(C)c(CC)c(C)c54)c3)c3c(C)c(CC)c(C)n3[B-](F)(F)[N+]2=C1C
emission maximum (in C1CCOC1): 567 nm | emission maximum (in CC#N): 556 nm | emission maximum (in CN(C)C=O): 570 nm | emission maximum (in Cc1ccccc1): 571 nm | emission maximum (in ClC(Cl)Cl): 571 nm

COc1ccc(/C=C/C=C/C2=NC3C(=O)NC(N)=NC3N2[C@H]2C[C@H](O)[C@@H](CO)O2)cc1 (some centres undefined)
emission maximum (in C1COCCO1): 429 nm | emission maximum (in CC#N): 441 nm | emission maximum (in CO): 438 nm

CC1=CC(C)=[N+]2C1=C(c1ccccc1)c1c(C)cc(/C=C/c3ccccc3)n1[B-]2(F)F
emission maximum (in CC#N): 569 nm

Cc1ccc(N(c2ccc(C)cc2)c2ccc(Oc3nnc(Cl)nn3)cc2)cc1
emission maximum (in ClCCl): 550 nm

c1ccc2c(-c3c4ccccc4c(-c4ccc(-n5c6ccccc6c6ccccc65)cc4)c4ccccc34)cccc2c1
emission maximum (in ClCCl): 421 nm

O=P1(c2ccccc2)C(c2ccc(C3=Cc4ccccc4P3(=O)c3ccccc3)cc2)=Cc2ccccc21 (centres undefined)
emission maximum (in C1CCOC1): 431 nm

COc1cc2cc(/C=C/c3ccc(/C=C(\C#N)C(=O)O)cc3)c(=O)oc2cc1OC
emission maximum (in CC#N): 483 nm

Cc1cccc2c1nc1c(=O)n(C)c(=O)nc-1n2C
emission maximum (in CC#N): 493 nm

c1ccc(-n2nc(-c3ccc(-c4ccc5c(c4)C(c4ccccc4)(c4ccccc4)c4ccccc4-5)cc3)nc2-c2ccccn2)cc1
emission maximum (in ClCCl): 358 nm

CC1=CC(C)=[N+]2C1=C(C1=C3C(C)=CC(C)=[N+]3[B-](F)(F)n3c(C)cc(C)c31)c1c(C)cc(C)n1[B-]2(F)F
emission maximum (in ClC(Cl)Cl): 588 nm

CCN1C(=O)C(C2C(=O)c3c4ccccc4cc4cc5ccccc5c2c34)SC1=S (centres undefined)
emission maximum (in C1CCOC1): 570 nm | emission maximum (in CC#N): 593 nm | emission maximum (in CCCCCC): 539 nm | emission maximum (in Cc1ccccc1): 563 nm | emission maximum (in ClCCl): 582 nm

CCC1=C(C)C2=C(c3c4ccccc4c(-c4ccccc4)c4ccccc34)c3c(C)c(CC)c(C)n3[B-](F)(F)[N+]2=C1C
emission maximum (in CC#N): 536 nm | emission maximum (in CCCCCC): 539 nm | emission maximum (in CCO): 538 nm | emission maximum (in CN(C)C=O): 539 nm | emission maximum (in Cc1ccccc1): 544 nm | emission maximum (in ClCCl): 543 nm

Fc1cc(-c2ccc(-c3nc4ccccc4[nH]3)cc2)ccc1-c1ccc(-c2nc3ccccc3[nH]2)cc1
emission maximum (in CN(C)C=O): 414 nm

Cc1cc(-c2ccc(-c3ccccc3)cc2)nc(-c2ccc(-n3c4ccccc4c4ccccc43)cc2)n1
emission maximum (in C1CCOC1): 418 nm | emission maximum (in CN(C)C=O): 474 nm | emission maximum (in Cc1ccccc1): 386 nm | emission maximum (in ClC(Cl)Cl): 416 nm

Cc1nc(-c2ccc(N3c4ccccc4C(c4ccccc4)(c4ccccc4)c4ccccc43)cc2)cc(-c2ccc(N3c4ccccc4C(c4ccccc4)(c4ccccc4)c4ccccc43)cc2)n1
emission maximum (in Cc1ccccc1): 453 nm | emission maximum (in O=P(c1ccccc1)(c1ccccc1)c1ccc2oc3ccc(P(=O)(c4ccccc4)c4ccccc4)cc3c2c1): 458 nm

Oc1cc2ccc3cc(O)cc4ccc(c1)c2c34
emission maximum (in CO): 405 nm

CC1=C(C)c2cccc3c2c(cc2nc4ccccc4nc23)O1
emission maximum (in ClCCl): 563 nm

Cc1cc(-c2ccccc2)cc(C)[o+]1
emission maximum (in CC#N): 462 nm | emission maximum (in ClCCl): 434 nm

Cc1ccccc1-c1c2cccc3c(-c4ccc(C(C)(C)C)cc4)cc4c(-c5ccccc5C)c5cccc6c(-c7ccc(C(C)(C)C)cc7)cc1c(c65)c4c32
emission maximum (in ClCCl): 455 nm

CC(C)[Si](C#Cc1c2nc3c(nc2c(C#C[Si](C(C)C)(C(C)C)C(C)C)c2nc4ccccc4nc12)C1c2ccccc2C3c2ccccc21)(C(C)C)C(C)C
emission maximum (in CCCCCC): 563 nm

CN(C)c1ccc(C#Cc2cc(C#Cc3ccc(N(C)C)cc3)c3ccc4c(C#Cc5ccc(N(C)C)cc5)cc(C#Cc5ccc(N(C)C)cc5)c5ccc2c3c54)cc1
emission maximum (in ClCCl): 562 nm

N#Cc1cc(C#N)c(-n2c3ccccc3c3c(-c4cccc5c4c4ccccc4n5-c4cc(-n5c6ccccc6c6ccccc65)c(C#N)cc4C#N)cccc32)cc1-n1c2ccccc2c2ccccc21
emission maximum (in O=P(c1ccccc1)(c1ccccc1)c1ccccc1Oc1ccccc1P(=O)(c1ccccc1)c1ccccc1): 444 nm

CCCCCCC(CCCCCC)n1c(=O)c2c3ccc4cccc5c6cccc7ccc(c2c1=O)c(c76)c3c45
emission maximum (in C1CCCCC1): 471 nm | emission maximum (in CC#N): 527 nm | emission maximum (in CC(C)=O): 514 nm | emission maximum (in CCCCCC): 469 nm | emission maximum (in CCO): 550 nm | emission maximum (in CCOCC): 495 nm | emission maximum (in CS(C)=O): 534 nm | emission maximum (in Cc1ccccc1): 491 nm | emission maximum (in ClC(Cl)(Cl)Cl): 482 nm | emission maximum (in ClC(Cl)Cl): 522 nm

CCCCN(CCCC)c1ccc2c#cc3cc4c#cc5ccc(C(F)(F)F)cc5c#cc#cc5cc(C(F)(F)F)ccc5c#cc4cc3c#cc3ccc(N(CCCC)CCCC)cc3c#cc#cc2c1
emission maximum (in ClCCl): 554 nm | emission maximum (in c1ccccc1): 504 nm

CN(C)c1ccc(/C=C/C=C/C2=NC3C(=O)NC(N)=NC3N2[C@H]2C[C@H](O)[C@@H](CO)O2)cc1 (some centres undefined)
emission maximum (in C1COCCO1): 429 nm | emission maximum (in CC#N): 443 nm | emission maximum (in CO): 438 nm

CN(C)c1ccc(-c2cc3c(s2)c(C(=O)c2ccccc2)cc(=O)n3Cc2ccccc2)cc1
emission maximum (in CC#N): 521 nm | emission maximum (in ClCCl): 678 nm

C/C(=C\c1ccc(Cl)cc1)c1nc2ccccc2s1
emission maximum (in C1CCCCC1): 390 nm | emission maximum (in CO): 400 nm

COC(=O)/C(C#N)=c1\s/c(=c2/s/c(=C(/C#N)C(=O)OC)c3cc(-c4ccccc4)sc23)c2sc(-c3ccccc3)cc12
emission maximum (in Cc1ccccc1): 640 nm

CN(C)c1ccc(/C=C/c2ncnc3ccccc23)cc1
emission maximum (in C1CCCCC1): 465 nm | emission maximum (in C1CCOC1): 537 nm | emission maximum (in CC#N): 572 nm | emission maximum (in CS(C)=O): 585 nm | emission maximum (in ClCCl): 548 nm

CC(C)(C)c1cc2c3c(c1)-c1cccc4c1N(B3N1c3ccccc3Sc3cccc-2c31)c1ccccc1S4
emission maximum (in C1CCOC1): 731 nm

Cc1ccc(CN2/C(=C/C=C3\CCCC(/C=C/C4=[N+](Cc5ccc(C)cc5)c5ccccc5C4(C)C)=C3Cl)C(C)(C)c3ccccc32)cc1
emission maximum (in CO): 813 nm

CCN(CC)c1ccc2cc(-c3csc(N)c3C#N)c(=O)oc2c1
emission maximum (in C1CCOC1): 458 nm | emission maximum (in CO): 514 nm | emission maximum (in CS(C)=O): 482 nm | emission maximum (in Cc1ccccc1): 447 nm | emission maximum (in ClCCl): 464 nm

CN(C)c1ccc(-c2ccc(-c3ccc(N(C)C)cc3)c3nc(-c4ccccc4)c(-c4ccccc4)nc23)cc1
emission maximum (in C1CCOC1): 601 nm | emission maximum (in CC#N): 646 nm | emission maximum (in CCCCCC): 538 nm | emission maximum (in CN(C)C=O): 648 nm | emission maximum (in Cc1ccccc1): 577 nm | emission maximum (in ClC(Cl)Cl): 597 nm

CCCN1C(=O)c2c3c(c4c(c2C1=O)CCc1cc(-c2ccc(N(C)C)cc2)c(OC)cc1-4)-c1cc(OC)c(-c2ccc(N(C)C)cc2)cc1CC3
emission maximum (in C1CCCCC1): 511 nm | emission maximum (in C1CCOC1): 602 nm | emission maximum (in CCOC(C)=O): 598 nm | emission maximum (in Cc1ccccc1): 548 nm | emission maximum (in ClCCl): 613 nm

C(=C\c1ccncn1)/c1ccc(N(c2ccccc2)c2ccccc2)cc1
emission maximum (in C1CCOC1): 496 nm | emission maximum (in CC#N): 545 nm | emission maximum (in CCCCCCC): 443 nm | emission maximum (in CS(C)=O): 550 nm | emission maximum (in ClCCl): 526 nm

COC(=O)c1cc(=O)n(C)c2cc(-c3ccccc3)sc12
emission maximum (in CC#N): 462 nm | emission maximum (in ClCCl): 462 nm

CC(C)(C)c1ccc2c(c1)c1cc(C(C)(C)C)ccc1n2-c1ccc(C#Cc2ccc3c4ccc(C#Cc5ccc(C=O)cc5)cc4n(-c4ccc(C(F)(F)F)cc4)c3c2)cc1
emission maximum (in ClCCl): 422 nm

CCn1c2ccccc2c2cc(-c3cc(-c4ccc5c(c4)c4ccccc4n5CC)ncn3)ccc21
emission maximum (in C1CCOC1): 395 nm | emission maximum (in CCOC(C)=O): 392 nm | emission maximum (in CN(C)C=O): 418 nm | emission maximum (in Cc1ccccc1): 379 nm | emission maximum (in ClCCl): 414 nm

N#Cc1cc2ccc(cc2)c2cccc3cccc(c4ccc(cc4)cc(C#N)c4ccc(cc4)c4cccc5cccc(c6ccc1cc6)c54)c32
emission maximum (in Cc1ccccc1): 496 nm

N#Cc1c(N2CCCCC2)cc(-c2ccc3ccccc3c2)c2c1-c1ccccc1C2=O
emission maximum (in C1CCOC1): 527 nm

CCCCOc1cc(C=C2c3ccccc3-c3ccccc32)c(OCCCC)cc1C=C1c2ccccc2C=Cc2ccccc21
emission maximum (in C1CCOC1): 472 nm

c1cc2cccc3c4cccc5cccc(c(c1)c23)c54
emission maximum (in C1CCCCC1): 438.4 nm | emission maximum (in ClC(Cl)Cl): 443 nm | emission maximum (in ClCCl): 448 nm

Cc1ccc(/C=C/c2ccccc2-[n+]2cc([O-])on2)cc1
emission maximum (in C1CCCCC1): 400 nm | emission maximum (in CC#N): 504 nm

COc1ccc(/C=C/c2ncc(-c3ccccc3)o2)cc1OC
emission maximum (in ClCCl): 420 nm

C[n+]1ccc(/C=C/c2ccc(N(c3ccccc3)c3ccc(/C=C/c4cc[n+](C)cn4)cc3)cc2)nc1
emission maximum (in CS(C)=O): 720 nm | emission maximum (in OCC(O)CO): 685 nm

CC(=O)c1ccc(/C=C/C=C/C2=NC3C(=O)NC(N)=NC3N2[C@H]2C[C@H](O)[C@@H](CO)O2)cc1 (some centres undefined)
emission maximum (in C1COCCO1): 494 nm | emission maximum (in CC#N): 547 nm | emission maximum (in CO): 554 nm

CN(C)c1ccc2cc3ccc(=[N+](C)C)cc-3oc2c1
emission maximum (in CCO): 568 nm | emission maximum (in O): 565 nm
